≈ marks a conversion by molar mass, not a printed value. Like-named read-outs stand apart in the source and are kept apart here.
Legend:
[1] = system: echovirus type 11 (Echo 11, Gregory); assay: In vitro anti-picornavirus activity (MTT), Echo 11; assay type: cell-based; conditions: HeLa-S3 cells, MTT method, 37° C.
[2] = Cytotoxicity (MTT, without virus), HeLa-S3; conditions: human, HeLa-S3 cells (uninfected)
HRV41 (56110) = assay: Anti-rhinovirus spectrum (MTT), HRV41; assay type: cell-based, human rhinovirus; design: Anti-Rhinovirus activity, HRV41: unit not given here
HRV1A (E28) = assay: Anti-rhinovirus activity (MTT), HRV1A; assay type: cell-based, human rhinovirus; design: Anti-Rhinovirus activity, HRV1A: unit not given here
[3] = system: Poliovirus type 1 (Polio 1, Sabin); assay: microbe, parasite or virus in culture; assay type: cell-based
HRV29 (5582) = assay: Anti-rhinovirus spectrum (MTT), HRV29; assay type: cell-based, human rhinovirus; design: Anti-Rhinovirus activity, HRV29: unit not given here
HRV32 (363) = assay: Anti-rhinovirus spectrum (MTT), HRV32; assay type: cell-based, human rhinovirus; design: Anti-Rhinovirus activity, HRV32: unit not given here
[4] = system: clinical isolate (89229T); assay: microbe, parasite or virus in culture; assay type: cell-based, human rhinovirus; design: Anti-Rhinovirus activity, Clinical isolated strain: unit not given here
HRV36 (342H) = assay: Anti-rhinovirus spectrum (MTT), HRV36; assay type: cell-based, human rhinovirus; design: Anti-Rhinovirus activity, HRV36: unit not given here
HRV39 (209) = assay: Anti-rhinovirus spectrum (MTT), HRV39; assay type: cell-based, human rhinovirus; design: Anti-Rhinovirus activity, HRV39: unit not given here
HRV8(MRH) = assay: Anti-rhinovirus spectrum (MTT), HRV8; assay type: cell-based, human rhinovirus; design: Anti-Rhinovirus activity, HRV8: unit not given here
HRV3(FEB) = assay: Anti-rhinovirus spectrum (MTT), HRV3; assay type: cell-based, human rhinovirus; design: Anti-Rhinovirus activity, HRV3: unit not given here
[5] = system: coxsackievirus type B4 (CB4,JVB); assay: In vitro anti-picornavirus activity (MTT), CB4; assay type: cell-based; conditions: HeLa cells, MTT method, 37° C.
[6] = Cytotoxicity (MTT, without virus), HeLa; conditions: human, HeLa cells (uninfected)
HRV 2 (HGP) = assay: Anti-rhinovirus activity (MTT), HRV2; assay type: cell-based, human rhinovirus; design: Anti-Rhinovirus activity, HRV2: unit not given here
[7] = Cytotoxicity (MTT, without virus), HeLa(Ohio); conditions: human, HeLa (Ohio strain) cells (uninfected)
HRV21 (47) = assay: Anti-rhinovirus spectrum (MTT), HRV21; assay type: cell-based, human rhinovirus; design: Anti-Rhinovirus activity, HRV21: unit not given here
HRV31 (41F) = assay: Anti-rhinovirus spectrum (MTT), HRV31; assay type: cell-based, human rhinovirus; design: Anti-Rhinovirus activity, HRV31: unit not given here
HRV13 (353) = assay: Anti-rhinovirus spectrum (MTT), HRV13; assay type: cell-based, human rhinovirus; design: Anti-Rhinovirus activity, HRV13: unit not given here
HRV5 = assay: Anti-rhinovirus spectrum (MTT), HRV5; assay type: cell-based, human rhinovirus; design: Anti-Rhinovirus activity, HRV5: unit not given here
HRV16 (11757) = assay: Anti-rhinovirus spectrum (MTT), HRV16; assay type: cell-based, human rhinovirus; design: Anti-Rhinovirus activity, HRV16: unit not given here
[8] = system: coxsackievirus type A7 (CA7); assay: In vitro anti-picornavirus activity (MTT), CA7; assay type: cell-based; conditions: HeLa-S3 cells, MTT method, 37° C.
HRV61 (6669-CV39) = assay: Anti-rhinovirus spectrum (MTT), HRV61; assay type: cell-based, human rhinovirus; design: Anti-Rhinovirus activity, HRV61: unit not given here
[9] = system: human rhinovirus type 1B (HRV 1B, B632); assay: Anti-rhinovirus activity (MTT), HRV1B; assay type: cell-based; design: Anti-Rhinovirus activity, HRV1B: unit not given here
HRV33 (1200) = assay: Anti-rhinovirus spectrum (MTT), HRV33; assay type: cell-based, human rhinovirus; design: Anti-Rhinovirus activity, HRV33: unit not given here
HRV14 (1059) = assay: Anti-rhinovirus activity (MTT), HRV14; assay type: cell-based, human rhinovirus; design: Anti-Rhinovirus activity, HRV14: unit not given here
HRV50(A2#58) = assay: Anti-rhinovirus spectrum (MTT), HRV50; assay type: cell-based, human rhinovirus; design: Anti-Rhinovirus activity, HRV50: unit not given here
HRV10 (204-CV14) = assay: Anti-rhinovirus spectrum (MTT), HRV10; assay type: cell-based, human rhinovirus; design: Anti-Rhinovirus activity, HRV10: unit not given here
HRV 89 (41617-Gallo) = assay: Anti-rhinovirus activity (MTT), HRV89; assay type: cell-based, human rhinovirus; design: Anti-Rhinovirus activity, HRV89: unit not given here
HeLa-S3 cells = assay: Cytotoxicity (MTT, without virus), HeLa-S3; conditions: HeLa-S3, no virus, incubated for 4 days
[10] = system: Human rotavirus (HROV, Odelia); assay: In vitro anti-rotavirus activity (plaque reduction), HRoV; assay type: cell-based; conditions: MA104 cells, four days after infection
Description: (§1) Human rotavirus (HROV, Odelia) and simian rotavirus (SRoV, SA11) were used in this experiment. Confluent monolayers of MA104 cells in 6-well multiplate were washed with Eagle MEM containing 0.5 μg/ml of trypsin and were infected with tripsinized-rotavirus (treated with 10 μg/ml of tripsin at 37° C. for 1.5 hr) at 50 PFU per well. After 1 hr of adsorption, the virus inoculum was removed, and the monolayers were washed with Eagle MEM containing 0.5 μg/ml of trypsin and overlaid with Eagle MEM containing 1 μg/ml of trypsin, 0.6% purified agar and the test compounds at various concentrations. The cultures were incubated at 37° C. for 3 days and same overlay medium was added. Four days after infection, the cell sheets were washed with PBS and stained with 1.3% crystal violet in 95% ethanol. The antiviral efficacy of the compounds was expressed as the IC50, that is the concentration of the compounds required to reduce the number of plaques to 50% in the control (virus-infected, but […]).

HeLa cells = assay: Cytotoxicity (MTT, without virus), HeLa; conditions: HeLa, no virus, incubated for 4 days
HeLa (Ohio strain)cells = assay: Cytotoxicity (MTT, without virus), HeLa(Ohio); conditions: HeLa(Ohio), no virus, incubated for 4 days
[11] = system: simian rotavirus (SRoV, SA11); assay: In vitro anti-rotavirus activity (plaque reduction), SRoV; assay type: cell-based; conditions: MA104 cells, four days after infection
Description: as §1

[12] = HeLa (Ohio strain) cells, MTT method, 33° C.

## Cc1c(-c2ccccc2)n(-c2ccccc2)c2ccc(C(C)C)cc2c1=O [Compound A320, 1,2-Diphenyl-3-methyl-6-isopropyl-1,4-dihydro-4-oxoquinoline]
[1]; Enterovirus B
  IC50: 0.15 µg/mL (≈ 0.424 µM)
[2]
  CC50 at 4 days: > 5 µg/mL
HRV41 (56110); Enterovirus, Table VII, rhinovirus serotype HRV41
  IC50: 0.066 µg/mL (≈ 0.187 µM)
HRV1A (E28); Enterovirus, HRV1A, read-out: Anti-rhinovirus activity HRV1A
  IC50: > 5 µg/mL
[3]; Enterovirus C, HeLa S3, read-out: IC50 Polio 1
  IC50: > 5 µg/mL
HRV29 (5582); Enterovirus, Table VII, rhinovirus serotype HRV29
  IC50: 0.079 µg/mL (≈ 0.224 µM)
HRV32 (363); Enterovirus, Table VII, rhinovirus serotype HRV32
  IC50: 0.051 µg/mL (≈ 0.144 µM)
other
  melting point: 225 °C
[4]; Human rhinovirus sp., Table VII, clinical isolate (89229T), read-out: Anti-rhinovirus activity Clinically isolated strain
  IC50: 0.017 µg/mL (≈ 0.0481 µM)
HRV36 (342H); Enterovirus, Table VII, rhinovirus serotype HRV36
  IC50: 0.082 µg/mL (≈ 0.232 µM)
HRV39 (209); Enterovirus, Table VII, rhinovirus serotype HRV39
  IC50: < 0.017 µg/mL
HRV8(MRH); Enterovirus, Table VII, rhinovirus serotype HRV8
  IC50: > 5 µg/mL
HRV3(FEB); Enterovirus, Table VII, rhinovirus serotype HRV3
  IC50: > 5 µg/mL
[5]; Coxsackievirus
  IC50: > 5 µg/mL
[6]
  CC50 at 4 days: > 5 µg/mL
HRV 2 (HGP); Enterovirus, Table VII, rhinovirus serotype HRV2, read-out: Anti-rhinovirus activity HRV2
  IC50: 0.051 µg/mL (≈ 0.144 µM)
HRV 2 (HGP); Human rhinovirus sp., HRV2, HeLa (Ohio strain) cells, MTT method, 33° C., read-out: IC50 HRV2
  IC50: 0.051 µg/mL (≈ 0.144 µM)
[7]
  CC50 at 4 days: > 5 µg/mL
HRV21 (47); Enterovirus, Table VII, rhinovirus serotype HRV21
  IC50: 0.024 µg/mL (≈ 0.0679 µM)
HRV31 (41F); Enterovirus, Table VII, rhinovirus serotype HRV31
  IC50: 0.046 µg/mL (≈ 0.13 µM)
HRV13 (353); Enterovirus, Table VII, rhinovirus serotype HRV13
  IC50: 0.23 µg/mL (≈ 0.651 µM)
HRV5; Enterovirus, Table VII, rhinovirus serotype HRV5
  IC50: > 5 µg/mL
HRV16 (11757); Enterovirus, Table VII, rhinovirus serotype HRV16
  IC50: 0.023 µg/mL (≈ 0.0651 µM)
[8]; Coxsackievirus
  IC50: > 5 µg/mL
HRV61 (6669-CV39); Enterovirus, Table VII, rhinovirus serotype HRV61
  IC50: 0.21 µg/mL (≈ 0.594 µM)
[9]; Human rhinovirus sp., HRV1B, HeLa (Ohio strain) cells, MTT method, 33° C., read-out: IC50 HRV1B
  IC50: 0.12 µg/mL (≈ 0.339 µM)
[9]; Table VII, rhinovirus serotype HRV1B, read-out: Anti-rhinovirus activity HRV1B
  IC50: 0.12 µg/mL (≈ 0.339 µM)
HRV33 (1200); Enterovirus, Table VII, rhinovirus serotype HRV33
  IC50: 0.23 µg/mL (≈ 0.651 µM)
HRV14 (1059); Enterovirus, Table VII, rhinovirus serotype HRV14, read-out: Anti-rhinovirus activity HRV14
  IC50: > 5 µg/mL
HRV50(A2#58); Enterovirus, HRV50, read-out: Anti-rhinovirus activity HRV50
  IC50: 0.02 µg/mL (≈ 0.0566 µM)
HRV10 (204-CV14); Enterovirus, Table VII, rhinovirus serotype HRV10
  IC50: 0.021 µg/mL (≈ 0.0594 µM)
HRV 89 (41617-Gallo); Enterovirus, Table VII, rhinovirus serotype HRV89, read-out: Anti-rhinovirus activity HRV89
  IC50: 0.051 µg/mL (≈ 0.144 µM)
HRV 89 (41617-Gallo); Human rhinovirus sp., HRV89, HeLa (Ohio strain) cells, MTT method, 33° C., read-out: IC50 HRV89
  IC50: 0.051 µg/mL (≈ 0.144 µM)

## CCc1ccc2c(c1)Cc1c-2n(CC)c2ccc(C(C)C)cc2c1=O [Compound B9, 2.5-Diethyl-8-isopropyl-5,10-dihydro-11H-indeno[1,2-b]quinolin-10-one]
[1]
  IC50 Echo 11: 0.18 µg/mL (≈ 0.543 µM)
HeLa-S3 cells
  Cytotoxicity CC50 HeLa-S3: >1 µg/mL
HRV41 (56110); HRV41
  Anti-Rhinovirus activity, HRV41: 0.13
HRV1A (E28); HRV1A
  Anti-Rhinovirus activity, HRV1A: >1.0
HRV1A (E28); [12]
  IC50 HRV 1A: >1 µg/mL
[3]
  IC50 Polio 1: 0.18 µg/mL (≈ 0.543 µM)
HRV29 (5582); HRV29
  Anti-Rhinovirus activity, HRV29: 0.19
HRV32 (363); HRV32
  Anti-Rhinovirus activity, HRV32: 0.13
[4]; Clinical isolated strain
  Anti-Rhinovirus activity, Clinical isolated strain: 0.31
HRV36 (342H); HRV36
  Anti-Rhinovirus activity, HRV36: 0.16
[10]
  Anti-rotavirus activity IC50 HRoV(Odelia): 0.56 µg/mL
HRV39 (209); HRV39
  Anti-Rhinovirus activity, HRV39: 0.20
HRV8(MRH); HRV8
  Anti-Rhinovirus activity, HRV8: 0.15
HRV3(FEB); HRV3
  Anti-Rhinovirus activity, HRV3: 0.23
[5]
  IC50 CB4: 0.56 µg/mL (≈ 1.69 µM)
HeLa cells
  Cytotoxicity CC50 HeLa: >1 µg/mL
HRV 2 (HGP); HRV2
  Anti-Rhinovirus activity, HRV2: 0.20
HRV 2 (HGP); [12]
  IC50 HRV2: 0.20 µg/mL (≈ 0.603 µM)
HeLa (Ohio strain)cells
  Cytotoxicity CC50 HeLa(Ohio): >1 µg/mL
HRV21 (47); HRV21
  Anti-Rhinovirus activity, HRV21: 0.16
HRV31 (41F); HRV31
  Anti-Rhinovirus activity, HRV31: 0.15
HRV13 (353); HRV13
  Anti-Rhinovirus activity, HRV13: 0.14
HRV5; HRV5
  Anti-Rhinovirus activity, HRV5: 0.17
HRV16 (11757); HRV16
  Anti-Rhinovirus activity, HRV16: 0.47
[8]
  IC50 CA7: 0.71 µg/mL (≈ 2.14 µM)
HRV61 (6669-CV39); HRV61
  Anti-Rhinovirus activity, HRV61: 0.16
[9]; HRV1B
  Anti-Rhinovirus activity, HRV1B: 0.25
[9]; [12]
  IC50 HRV1B: 0.25 µg/mL (≈ 0.754 µM)
HRV33 (1200); HRV33
  Anti-Rhinovirus activity, HRV33: 0.094
HRV14 (1059); HRV14
  Anti-Rhinovirus activity, HRV14: 0.58
HRV14 (1059); [12]
  IC50 HRV 14: 0.58 µg/mL (≈ 1.75 µM)
[11]
  Anti-rotavirus activity IC50 SRoV(SA11): 0.59 µg/mL
HRV50(A2#58); HRV50
  Anti-Rhinovirus activity, HRV50: 0.13
HRV10 (204-CV14); HRV10
  Anti-Rhinovirus activity, HRV10: 0.47
HRV 89 (41617-Gallo); HRV89
  Anti-Rhinovirus activity, HRV89: 0.21
HRV 89 (41617-Gallo); [12]
  IC50 HRV89: 0.21 µg/mL (≈ 0.634 µM)

From patent publication US7109338B2, “1,2-disubstituted 1,4-dihydro-4-oxoquinoline compounds” (priority 1999, dated 2006)
